Earlier results, collected in patent publication US20120020948A1, “DAG-TYPE AND INDIRECT PROTEIN KINASE C ACTIVATORS AND ANTICOAGULANT FOR THE TREATMENT OF STROKE” (priority 2010, published 2012).

Legend:
PKC = settings: for affinity for PKC: A-ring bryologs

| SMILES | affinity for PKC (PKC) [nM] | other results |
| --- | --- | --- |
| CCCCCCCC(=O)O[C@H]1/C(=C/C(=O)OC)C[C@H]2C[C@H](CO)OC(=O)C[C@H](O)C[C@@H]3CCC[C@H](C[C@@H]4CCO[C@H](/C=C/C(C)(C)[C@]1(O)O2)O4)O3 [Analog 1] | – | PKC Affin (PKC): 0.25 nM; affinity for PKC (in words) (PKC): highest affinity for PKC |
| CC1=CC[C@H](C)C(C)(C)[C@@H]1/C=C/C(C)=C/CC[C@@]1(CO)[C@H](CCCO)/C(=C(/C)C=O)CC[C@]1(C)O [Iripallidal] | – | GI50 (concentration required to inhibit growth by 50%) (NCI 60 cell line screen): micromolar to nanomolar range |
| CCCCCCCC(=O)OC1C(=CC(=O)OC)CC2CC(CO)OC(=O)CC(O)CCOC(C(C)(C)C)CC3CCOC(C=CC(C)(C)C1(O)O2)O3 (stereo not drawn) [bryolog 3] | 6.5 | – |
| CCCCCCCC(=O)OC1C(=CC(=O)OC)CC2CC(CO)OC(=O)CC(O)CCOC(c3ccccc3)CC3CCOC(C=CC(C)(C)C1(O)O2)O3 (stereo not drawn) [bryolog 4] | 2.3 | – |
| CCCCCCCC(=O)OC1C(=CC(=O)OC)CC2CC(CO)OC(=O)CC(O)CCOC(CCCc3ccc(Br)cc3)CC3CCOC(C=CC(C)(C)C1(O)O2)O3 (stereo not drawn) [bryolog 5] | 1.9 | – |
